Where two headings read alike, the source gives them in different places.
What was measured:
[1] = target: T1, Thielavia arenaria ALKO4197 laccase TaLcc1, recombinant (rTaLcc1, expressed in Trichoderma reesei), SEQ ID NO: 12 (Canariomyces arenarius, UniProt F6N9E7); type: biochemical
T1 construct: predicted mature residues 22-604; no tag stated
T1 sequence (F6N9E7 with tags, fused parts or gaps): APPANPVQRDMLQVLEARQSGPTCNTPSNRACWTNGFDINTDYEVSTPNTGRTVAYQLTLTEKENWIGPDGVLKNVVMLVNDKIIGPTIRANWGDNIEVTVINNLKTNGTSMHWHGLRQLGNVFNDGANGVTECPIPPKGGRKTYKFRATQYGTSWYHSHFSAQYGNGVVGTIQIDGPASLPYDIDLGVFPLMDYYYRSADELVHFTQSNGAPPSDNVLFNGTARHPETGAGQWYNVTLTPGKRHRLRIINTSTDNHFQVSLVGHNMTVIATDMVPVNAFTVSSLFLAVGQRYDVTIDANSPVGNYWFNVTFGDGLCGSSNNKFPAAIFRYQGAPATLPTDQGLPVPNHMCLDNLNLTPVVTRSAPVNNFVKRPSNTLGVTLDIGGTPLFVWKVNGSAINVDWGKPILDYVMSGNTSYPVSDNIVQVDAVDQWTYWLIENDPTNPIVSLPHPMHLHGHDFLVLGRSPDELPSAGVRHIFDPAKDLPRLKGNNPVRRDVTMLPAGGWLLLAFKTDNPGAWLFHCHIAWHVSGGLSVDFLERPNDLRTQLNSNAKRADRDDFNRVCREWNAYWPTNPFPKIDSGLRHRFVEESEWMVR
Protocol: (§1) On syringaldazin and DMP 40 mM MES buffer, pH 6 and 25 mM succinate buffer. All activity assays were carried out at 25° C. Kinetic parameters were estimated by a nonlinear regression curve fit. The values were compared to those of Melanocarpus albomyces MaL, laccase.

[2] = target: T2, Melanocarpus albomyces laccase MaL (Melanocarpus albomyces, UniProt Q70KY3); assay: Kinetic parameters of Melanocarpus albomyces laccase MaL (comparison); type: biochemical
T2 sequence (Q70KY3 51-609): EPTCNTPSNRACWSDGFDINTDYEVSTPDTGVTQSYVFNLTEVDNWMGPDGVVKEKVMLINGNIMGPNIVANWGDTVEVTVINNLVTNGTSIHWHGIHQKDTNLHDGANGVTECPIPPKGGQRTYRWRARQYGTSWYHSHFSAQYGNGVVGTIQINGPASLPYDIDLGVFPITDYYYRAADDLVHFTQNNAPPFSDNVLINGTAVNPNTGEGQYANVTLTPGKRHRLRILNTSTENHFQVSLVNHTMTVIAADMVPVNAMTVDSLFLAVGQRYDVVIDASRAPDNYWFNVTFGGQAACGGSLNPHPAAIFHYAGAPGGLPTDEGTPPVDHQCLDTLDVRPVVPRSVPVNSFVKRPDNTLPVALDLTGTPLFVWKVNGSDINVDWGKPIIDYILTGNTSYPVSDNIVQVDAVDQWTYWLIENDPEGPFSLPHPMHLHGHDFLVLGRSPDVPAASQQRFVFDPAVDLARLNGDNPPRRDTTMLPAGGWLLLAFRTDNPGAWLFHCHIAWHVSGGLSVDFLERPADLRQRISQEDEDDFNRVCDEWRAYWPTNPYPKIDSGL
Protocol: as §1

[3] = Denim bleaching: laccase-mediator (100 nkat/g, 5 mg/g, 30 min, 60° C.) compared to sodium hypochlorite (15 min, 40° C.)
Protocol: Different types of demin were treated with a TaLcc1 laccase product from Trichoderma strain RF5597 and DeniLite II Base from Novozymes and the results obtained were compared to hypochlorite bleaching. All together 27 pieces of different kinds of denim (whole jeans), which had been previously washed with cellulase after desizing to different abrasion levels or had been only desized with ECOSTONE®A200 (60° C., 10 min), were collected for the test (Table 15). The jeans were made of Indigo dyed denim, except the English jeans contained Indigo dyed denim with sulphur bottom. Jeans were cut in such a way that pieces from the same pair of jeans could be used for all tests.
The jeans were made of Indigo dyed denim (right hand twill), except the English jeans contained Indigo dyed denim with sulphur bottom. The weights of the original (i.e. not desized) denim fabrics were typically higher than 475 g/m^2 (14 oz/yd^2). The weights of three 10 cm×10 cm pieces were measured after 24 hours incubation at room temperature (ca. 22° C. and at relative moisture ca. 64%).
The laccase treatments were performed with Electrolux's Wascator FOM 71 CLS washer extractor under optimal conditions for each enzyme, described in Table 16. Methyl syringate (Example 7) was used as a mediator. Laccase was inactivated after draining by raising the pH above 11 by NaOH (10 min, 60° C.) and rinsing for three times. The fabrics were dried in a tumbler.
The sodium hypochlorite bleaching was performed with Electrolux's Wascator FOM 71 CLS washer extractor using denim obtained from the same jeans as in laccase treatments under conditions described in Table 17. Sodium hydroxide was added before adding 25 ml/l of 10% sodium hypochlorite solution (Klorite Forte, Farmos Oy) to keep the pH above 10.5 during the treatment. After draining the bleach liquor, there was one 2 minutes rinsing step with the liquor ratio of 1:20 before dechlorinating with sodium thiosulphate. After dechlorinating the denim samples were rinsed 3 times for 2 minutes with the liquor ratio of 1:20. The fabrics were dried in a tumbler.
The bleaching effect was evaluated by measuring the colour as reflectance values as in Example 7. […] Different looks were obtained depending on the type of the denim and cellulase treatment used. “Sulphur-bottom type” denim was the most difficult to bleach.

[4] = substrate: COc1cc(/C=N/N=C/c2cc(OC)c(O)c(OC)c2)cc(OC)c1O; assay: purified protein, by the assay type; type: biochemical, Thielavia arenaria; conditions: other: syringaldazin and DMP, 40 mM MES buffer, pH 6 and 25 mM succinate buffer, 25° C.
Protocol: as §1

[5] = syringaldazin and DMP, 40 mM MES buffer, pH 6 and 25 mM succinate buffer, 25° C.
[6] = ABTS, 25 mM succinate buffer, pH 4.5, 25° C.
[7] = sample B1: Basic Jeans, Ecostone P1250
[8] = sample E1: English jeans (sulphur bottom), desized only
[9] = sample E2: English jeans, Ecostone NP2000
[10] = sample E3: English jeans, Rocksoft NCE-EA
[11] = sample E4: English jeans, Rocksoft NCE-2X
[12] = sample E5: English jeans, Ecostone L900
[13] = sample E6: English jeans, Ecostone L900
[14] = sample E7: English jeans, Ecostone L900
[15] = sample L1: Lee Cooper jeans, desized only
[16] = sample L2: Lee Cooper jeans, Ecostone L
[17] = sample L3: Lee Cooper jeans, Biotouch C29
[18] = sample L4: Lee Cooper jeans, Ecostone L
[19] = sample L5: Lee Cooper jeans, Indiage Max L
[20] = sample L6: Lee Cooper jeans, Indiage Super L
[21] = sample L7: Lee Cooper jeans, Ecostone CXP500 Exper.
[22] = sample L8: Lee Cooper jeans, Ecostone CXP experimental
[23] = sample L9: Lee Cooper jeans, Ecostone N400
[24] = sample T1: Tincan jeans, desized only
[25] = sample T2: Tincan jeans, Ecostone N400
[26] = sample T3: Tincan jeans, Ecostone L300
[27] = sample T4: Tincan jeans, Denimax 991S
[28] = sample W1: Warric jeans, desized only
[29] = sample W2: Warric jeans, Ecostone P4500
[30] = sample W3: Warric jeans, Indiage Max G
[31] = sample W4: Warric jeans, Ecostone NP2000
[32] = sample W5: Warric jeans, Ecostone L900
[33] = sample W6: Warric jeans, Denabraide MBL 65 E

COc1cccc(OC)c1O [DMP, 2,6-dimethoxy phenol]
kcat [1, 5]: 67.17 s⁻¹
kcat [2, 5]: 69.33 s⁻¹

CCn1c(=NN=c2sc3cc(S(=O)(=O)O)ccc3n2CC)sc2cc(S(=O)(=O)O)ccc21 [ABTS, 2,2′azinobis-3-ethylbenzthiazole-6-sulphonate]
Km [1, 6]: 75 µM
kcat [1, 6]: 68.83 s⁻¹
kcat ([2]; pH 4.5): 78.17 s⁻¹

COc1cc(/C=N/N=C/c2cc(OC)c(O)c(OC)c2)cc(OC)c1O [Syringaldazin, syringaldazine]
kcat [2, 5]: 78.5 s⁻¹

OCl [sodium hypochlorite, reference compound]
L* after treatment [3, 7]: 40.62
b* after treatment [3, 7]: −17.37
L* after treatment [3, 8]: 21.91
b* after treatment [3, 8]: −15.03
L* after treatment [3, 9]: 33.30
b* after treatment [3, 9]: −16.43
Increase of L* [3, 10]: 9.40
L* after treatment [3, 10]: 34.13
b* after treatment [3, 10]: −16.73
L* after treatment [3, 11]: 35.83
b* after treatment [3, 11]: −16.86
L* after treatment [3, 12]: 33.85
b* after treatment [3, 12]: −16.48
L* after treatment [3, 13]: 30.61
b* after treatment [3, 13]: −16.65
L* after treatment [3, 14]: 32.36
b* after treatment [3, 14]: −16.75
L* after treatment [3, 15]: 31.23
b* after treatment [3, 15]: −20.83
L* after treatment [3, 16]: 44.11
b* after treatment [3, 16]: −18.60
L* after treatment [3, 17]: 39.71
b* after treatment [3, 17]: −19.67
L* after treatment [3, 18]: 40.63
b* after treatment [3, 18]: −19.25
L* after treatment [3, 19]: 39.47
b* after treatment [3, 19]: −19.48
L* after treatment [3, 20]: 41.50
b* after treatment [3, 20]: −18.68
L* after treatment [3, 21]: 37.91
b* after treatment [3, 21]: −19.85
L* after treatment [3, 22]: 40.74
b* after treatment [3, 22]: −19.12
L* after treatment [3, 23]: 40.82
b* after treatment [3, 23]: −18.82
L* after treatment [3, 24]: 33.97
b* after treatment [3, 24]: −17.95
L* after treatment [3, 25]: 34.38
b* after treatment [3, 25]: −18.22
L* after treatment [3, 26]: 40.33
b* after treatment [3, 26]: −18.30
L* after treatment [3, 27]: 37.66
b* after treatment [3, 27]: −18.58
L* after treatment [3, 28]: 27.75
b* after treatment [3, 28]: −18.76
L* after treatment [3, 29]: 39.35
b* after treatment [3, 29]: −17.39
L* after treatment [3, 30]: 41.11
b* after treatment [3, 30]: −16.79
L* after treatment [3, 31]: 38.07
b* after treatment [3, 31]: −17.33
L* after treatment [3, 32]: 37.12
b* after treatment [3, 32]: −18.03
L* after treatment [3, 33]: 36.65
b* after treatment [3, 33]: −17.95

B1: Thielavia arenaria ALKO4197 laccase TaLcc1, recombinant (rTaLcc1, expressed in Trichoderma reesei), SEQ ID NO: 12 (Canariomyces arenarius) (protein)
chain: APPANPVQRDMLQVLEARQSGPTCNTPSNRACWTNGFDINTDYEVSTPNTGRTVAYQLTLTEKENWIGPDGVLKNVVMLVNDKIIGPTIRANWGDNIEVTVINNLKTNGTSMHWHGLRQLGNVFNDGANGVTECPIPPKGGRKTYKFRATQYGTSWYHSHFSAQYGNGVVGTIQIDGPASLPYDIDLGVFPLMDYYYRSADELVHFTQSNGAPPSDNVLFNGTARHPETGAGQWYNVTLTPGKRHRLRIINTSTDNHFQVSLVGHNMTVIATDMVPVNAFTVSSLFLAVGQRYDVTIDANSPVGNYWFNVTFGDGLCGSSNNKFPAAIFRYQGAPATLPTDQGLPVPNHMCLDNLNLTPVVTRSAPVNNFVKRPSNTLGVTLDIGGTPLFVWKVNGSAINVDWGKPILDYVMSGNTSYPVSDNIVQVDAVDQWTYWLIENDPTNPIVSLPHPMHLHGHDFLVLGRSPDELPSAGVRHIFDPAKDLPRLKGNNPVRRDVTMLPAGGWLLLAFKTDNPGAWLFHCHIAWHVSGGLSVDFLERPNDLRTQLNSNAKRADRDDFNRVCREWNAYWPTNPFPKIDSGLRHRFVEESEWMVR
notes: predicted mature residues 22-604; no tag stated
Km [4]: 4.3 µM
kcat [4]: 32.3 s⁻¹
kcat/Km [4]: 7.52e+06 M⁻¹ s⁻¹

Source: patent US7927849B2, “Laccase enzyme and use thereof” (AB Enzymes OY, priority 2004, dated 2011)
